{
  "source": "patent US12545677B2",
  "about": "“Compounds useful as factor XIa inhibitors” (JANSSEN PHARMACEUTICA NV, priority 2020, dated 2026)",
  "key": {"[1]": {"target": "T1, CYP3A4 (Homo sapiens, UniProt P08684)", "T1 construct": "Frozen human liver microsomes (HLM) were thawed at 37° C; from tissue; host or cells: human liver microsomes", "T1 sequence (P08684 whole entry)": "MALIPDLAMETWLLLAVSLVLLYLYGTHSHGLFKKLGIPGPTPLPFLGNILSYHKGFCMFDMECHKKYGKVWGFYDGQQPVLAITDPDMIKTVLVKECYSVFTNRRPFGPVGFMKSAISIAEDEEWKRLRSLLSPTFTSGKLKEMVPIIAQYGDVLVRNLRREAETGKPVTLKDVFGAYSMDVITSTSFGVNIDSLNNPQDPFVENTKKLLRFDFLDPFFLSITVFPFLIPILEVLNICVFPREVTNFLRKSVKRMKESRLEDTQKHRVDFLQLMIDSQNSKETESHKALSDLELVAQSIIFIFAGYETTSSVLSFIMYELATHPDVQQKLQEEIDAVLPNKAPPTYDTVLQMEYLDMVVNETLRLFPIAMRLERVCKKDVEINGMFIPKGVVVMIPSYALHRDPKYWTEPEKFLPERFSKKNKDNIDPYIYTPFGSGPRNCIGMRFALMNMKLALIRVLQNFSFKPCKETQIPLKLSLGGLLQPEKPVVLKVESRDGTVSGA", "test": "Assessment of TDI potential using the IC50 shift method", "assay_type": "in vitro ADME", "settings": "CYP3A4 (testosterone)", "procedure": "Assessment of TDI Potential Using the IC50 Shift Method\nTo establish the potential for TDI of a particular P450 isozyme, the test compound is preincubated over a concentration range (typically 0.04 to 10 μM) with HLMs in the presence of cofactor NADPH for 30 minutes. After pre-incubation, a probe substrate known to be specifically metabolized to a defined metabolite by the isoform under investigation is then added at fixed concentration. Following a pre-defined incubation period (e.g. 10 minutes for the CYP3A4 testosterone assay), the reaction is terminated by addition of a suitable organic solvent (typically, acetonitrile) containing an internal standard. The samples are centrifuged prior to analysis by LC-MS/MS analysis and IC50 TDI value is calculated using curve fitting. This is compared to the IC50 for reversible inhibition, obtained when the pre-incubation step is performed in the absence of […] (IC50 Rev). A leftwards shift in the IC50 (i.e. increased inhibition) upon pre-incubation indicates the potential for TDI of that isozyme. The IC50 shift value is calculated as the ratio of IC50 Rev/IC50 TDI.\nThe assay was performed on a fully automated Tecan robotic system. Sample analysis was performed via LC-MS/MSMS using stable-labelled internal standard of the probe substrate metabolite."}, "[2]": {"target": "T2, HERG current (Homo sapiens, UniProt Q12809)", "T2 construct": "expressed in transfected cells; host or cells: HEK293", "T2 sequence (Q12809 whole entry)": "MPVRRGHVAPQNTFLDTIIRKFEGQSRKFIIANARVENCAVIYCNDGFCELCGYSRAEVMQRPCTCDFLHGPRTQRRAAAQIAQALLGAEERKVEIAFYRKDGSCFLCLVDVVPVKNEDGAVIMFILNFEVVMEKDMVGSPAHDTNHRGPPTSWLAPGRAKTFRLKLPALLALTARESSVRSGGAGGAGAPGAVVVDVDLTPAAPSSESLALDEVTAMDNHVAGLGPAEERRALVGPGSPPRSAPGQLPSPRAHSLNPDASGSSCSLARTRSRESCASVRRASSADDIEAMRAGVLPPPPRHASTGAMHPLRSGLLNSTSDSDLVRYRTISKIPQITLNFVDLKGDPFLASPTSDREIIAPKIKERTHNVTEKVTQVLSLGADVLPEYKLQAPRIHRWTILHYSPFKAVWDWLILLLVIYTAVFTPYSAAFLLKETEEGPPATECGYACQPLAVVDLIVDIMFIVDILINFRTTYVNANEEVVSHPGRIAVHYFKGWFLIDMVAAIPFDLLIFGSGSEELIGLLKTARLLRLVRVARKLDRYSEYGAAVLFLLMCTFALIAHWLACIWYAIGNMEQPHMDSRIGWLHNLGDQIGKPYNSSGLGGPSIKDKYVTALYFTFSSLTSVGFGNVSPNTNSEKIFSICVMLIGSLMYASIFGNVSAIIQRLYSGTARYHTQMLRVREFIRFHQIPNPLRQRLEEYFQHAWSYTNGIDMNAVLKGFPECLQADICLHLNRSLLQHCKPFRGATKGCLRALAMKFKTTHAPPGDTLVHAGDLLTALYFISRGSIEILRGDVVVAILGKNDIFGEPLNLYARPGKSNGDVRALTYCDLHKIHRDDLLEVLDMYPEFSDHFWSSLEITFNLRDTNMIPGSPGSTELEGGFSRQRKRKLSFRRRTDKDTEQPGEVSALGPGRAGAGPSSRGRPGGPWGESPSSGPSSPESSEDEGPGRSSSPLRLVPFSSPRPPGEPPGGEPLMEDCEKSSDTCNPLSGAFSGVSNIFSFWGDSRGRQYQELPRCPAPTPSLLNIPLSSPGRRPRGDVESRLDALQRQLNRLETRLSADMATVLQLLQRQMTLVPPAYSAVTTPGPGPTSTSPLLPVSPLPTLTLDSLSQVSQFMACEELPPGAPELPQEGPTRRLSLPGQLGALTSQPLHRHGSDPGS", "test": "hERG assay, whole-cell voltage clamp in HEK293 cells", "assay_type": "cell-based", "settings": "HEK293 with stable transfection of HERG, 5 minutes of drug application", "text": "Biological Example 6: hERG Assay\nHERG (human ether-à-go-go-related gene) encodes a potassium channel with biophysical properties similar to the rapidly activating delayed-rectifier K^+ current (IKr) in cardiac myocytes. This IKr current contributes to the K^+ current responsible for the repolarization phase of the cardiac action potential. Blockage of this current may prolong action potential duration and cause long QT-syndrome. The development of QT prolongation can lead to the occurrence of ventricular arrhythmias such as Torsades de Pointes, which can result in sudden death. […]\nElectrophysiological measurements: The membrane current of the cells was measured at distinct membrane potentials with the patch clamp technique by means of an EPC-9 patch clamp amplifier. […] The HERG current (K+-selective outward current) was determined as the maximal tail current at −40 mV after a 2 second depolarization to +60 mV. […] Thereafter test pulses were given for 5 minutes to quantify the HERG current in control conditions. […] The effect of the test compound was measured after 5 minutes of drug application. […]\nMeasurements: The HERG current was determined as the maximal tail current at −40 mV after a 2 second depolarization to +60 mV, starting from a holding potential of −80 mV. […]"}},
  "note": "Read-outs that look alike come from different tables or passages of the source.",
  "data": [
    {"smiles": "O=C1C=C(c2c(-n3cnnn3)ccc(Cl)c2F)C[C@H]2CC[C@@H](c3ncc(-c4ccnc(CO)c4F)[nH]3)N12", "note": "[Compound of formula (I-A), (3S,8aR)-7-(3-Chloro-2-fluoro-6-(1H-tetrazol-1-yl)phenyl)-3-(5-(3-fluoro-2-(hydroxymethyl)pyridin-4-yl)-1H-imidazol-2-yl)-2,3,8,8a-tetrahydroindolizin-5(1H)-one]", "values": [
      {"measurement": "% maximum concentration, without pre-incubation", "setting": "[1]; HLM", "value": 68.2, "unit": "%"},
      {"measurement": "% maximum concentration, with pre-incubation", "setting": "[1]; HLM, 30 minutes pre-incubation", "value": 62.8, "unit": "%"},
      {"measurement": "IC50", "setting": "[1]; HLM, 30 minutes pre-incubation with NADPH, read-out: IC50 with pre-incubation", "value": "17.5 ± 2.5", "unit": "µM"},
      {"measurement": "IC50", "setting": "[1]; HLM, standard solvent conditions, read-out: IC50 without pre-incubation", "value": "12.2 ± 1.4", "unit": "µM"},
      {"measurement": "IC50 shift", "setting": "[1]; ratio of IC50 Rev/IC50 TDI", "value": 0.70},
      {"measurement": "IC50", "setting": "[2]", "value": "> 30", "unit": "µM"}
    ]}
  ]
}
